Reference: ChEMBL document CHEMBL4251615, “Discovery of anilino-furo[2,3-d]pyrimidine derivatives as dual inhibitors of EGFR/HER2 tyrosine kinase and their anticancer activity” (Eur J Med Chem, 2018)
Active and inactive are the calls of the source. The calls are words filed in the database; no cut-off is given here.

Key:
MCF7 = assay: Cytotoxicity against human MCF7 cells assessed as reduction in cell viability after 72 hrs by MTT assay; type: functional, cell-based; conditions: MCF7, 72 h
A549 [1] = assay: Cytotoxicity against human A549 cells assessed as reduction in cell viability after 72 hrs by MTT assay; type: functional, cell-based; conditions: A549, 72 h
[2] = target: T1, Epidermal growth factor receptor (Homo sapiens, UniProt P00533); assay: Inhibition of recombinant human C-terminal His/N-terminal GST-tagged EGFR (668 to 1210 residues) expressed in baculovirus infected Sf9 cells at 10 uM using biotin-labeled poly[Glu:Tyr] (4:1) as substrate after 30 mins by Kinase-Glo plus luminescence assay relative to control
[3] = target: T1, Epidermal growth factor receptor; assay: Inhibition of recombinant human C-terminal His/N-terminal GST-tagged EGFR (668 to 1210 residues) expressed in baculovirus infected Sf9 cells using biotin-labeled poly[Glu:Tyr] (4:1) as substrate after 30 mins by Kinase-Glo plus luminescence assay
Ehrlich [4] = assay: Antitumor activity against mouse EAC cells implanted in albino mouse assessed as tumor growth inhibition at 10 mg/kg, po once daily for 8 consecutive days relative to control; type: functional; conditions: read-out: TGI
Mus musculus [5] = assay: Toxicity in albino mouse implanted with mouse EAC cells assessed as change in organ index at 5 to 10 mg/kg, po once daily for 8 consecutive days; type: organism-based; conditions: in vivo
Ehrlich [6] = assay: Antitumor activity against mouse EAC cells implanted in albino mouse assessed as cell death in thigh muscle tumor cells at 10 mg/kg, po once daily for 8 consecutive days by hematoxylin and eosin staining based light microscopic method; type: functional, organism-based
Ehrlich [7] = assay: Antitumor activity against mouse EAC cells implanted in albino mouse assessed as increase in caspase-3 expression in tumor at 10 mg/kg, po once daily for 8 consecutive days by immunohistochemical analysis relative to control; type: functional
A549 [8] = assay: Induction of apoptosis in human A549 cells assessed as live cells after 24 hrs by Annexin V-FITC/propidium iodide staining based flow cytometry (reference value: 97.93%); type: functional
Ehrlich [9] = assay: Antitumor activity against mouse EAC cells implanted in albino mouse assessed as increase in cytochrome-c expression in tumor at 10 mg/kg, po once daily for 8 consecutive days by immunohistochemical analysis; type: functional, organism-based
Ehrlich [10] = assay: Antitumor activity against mouse EAC cells implanted in albino mouse assessed as tumor growth inhibition at 5 mg/kg, po once daily for 8 consecutive days relative to control; type: functional; conditions: read-out: TGI
A549 [11] = assay: Induction of apoptosis in human A549 cells assessed as necrotic cells after 24 hrs by Annexin V-FITC/propidium iodide staining based flow cytometry (reference value: 0.17%); type: functional
A549 [12] = assay: Induction of apoptosis in human A549 cells assessed as late apoptotic cells after 24 hrs by Annexin V-FITC/propidium iodide staining based flow cytometry (reference value: 0.11%); type: functional
A549 [13] = assay: Cell cycle arrest in human A549 cells assessed as accumulation at pre-G1 phase after 24 hrs by propidium iodide staining based flow cytometry relative to control; type: functional
A549 [14] = assay: Induction of apoptosis in human A549 cells assessed as early apoptotic cells after 24 hrs by Annexin V-FITC/propidium iodide staining based flow cytometry (reference value: 0.26%); type: functional
A549 [15] = assay: Cell cycle arrest in human A549 cells assessed as accumulation at G2/M phase after 24 hrs by propidium iodide staining based flow cytometry relative to control; type: functional
Mus musculus [16] = assay: Toxicity in albino mouse implanted with mouse EAC cells assessed as body weight change at 5 to 10 mg/kg, po once daily for 8 consecutive days; type: organism-based; conditions: in vivo
[17] = target: Receptor tyrosine-protein kinase erbB-2 (Homo sapiens) (UniProt P04626); assay: Inhibition of recombinant human N-terminal GST-tagged HER2 (679 to 1255 residues) expressed in baculovirus infected Sf9 cells at 10 uM using poly[Glu:Tyr] (4:1) as substrate after 40 mins by Kinase-Glo plus luminescence assay relative to control
A549 [18] = assay: Induction of apoptosis in human A549 cells assessed as increase in late apoptotic cells after 24 hrs by Annexin V-FITC/propidium iodide staining based flow cytometry relative to control; type: functional
Ehrlich [19] = assay: Antitumor activity against mouse EAC cells implanted in albino mouse assessed as tumor growth inhibition administered orally once daily for 8 consecutive days; type: functional
A549 [20] = assay: Induction of apoptosis in human A549 cells assessed as increase in early apoptotic cells after 24 hrs by Annexin V-FITC/propidium iodide staining based flow cytometry relative to control; type: functional
Ehrlich [21] = assay: Antitumor activity against mouse EAC cells implanted in albino mouse assessed as focal cell death in thigh muscle tumor cells at 5 to 10 mg/kg, po once daily for 8 consecutive days by hematoxylin and eosin staining based light microscopic method; type: functional, organism-based

T1 sequence (P00533 whole entry, the tested form may be a part): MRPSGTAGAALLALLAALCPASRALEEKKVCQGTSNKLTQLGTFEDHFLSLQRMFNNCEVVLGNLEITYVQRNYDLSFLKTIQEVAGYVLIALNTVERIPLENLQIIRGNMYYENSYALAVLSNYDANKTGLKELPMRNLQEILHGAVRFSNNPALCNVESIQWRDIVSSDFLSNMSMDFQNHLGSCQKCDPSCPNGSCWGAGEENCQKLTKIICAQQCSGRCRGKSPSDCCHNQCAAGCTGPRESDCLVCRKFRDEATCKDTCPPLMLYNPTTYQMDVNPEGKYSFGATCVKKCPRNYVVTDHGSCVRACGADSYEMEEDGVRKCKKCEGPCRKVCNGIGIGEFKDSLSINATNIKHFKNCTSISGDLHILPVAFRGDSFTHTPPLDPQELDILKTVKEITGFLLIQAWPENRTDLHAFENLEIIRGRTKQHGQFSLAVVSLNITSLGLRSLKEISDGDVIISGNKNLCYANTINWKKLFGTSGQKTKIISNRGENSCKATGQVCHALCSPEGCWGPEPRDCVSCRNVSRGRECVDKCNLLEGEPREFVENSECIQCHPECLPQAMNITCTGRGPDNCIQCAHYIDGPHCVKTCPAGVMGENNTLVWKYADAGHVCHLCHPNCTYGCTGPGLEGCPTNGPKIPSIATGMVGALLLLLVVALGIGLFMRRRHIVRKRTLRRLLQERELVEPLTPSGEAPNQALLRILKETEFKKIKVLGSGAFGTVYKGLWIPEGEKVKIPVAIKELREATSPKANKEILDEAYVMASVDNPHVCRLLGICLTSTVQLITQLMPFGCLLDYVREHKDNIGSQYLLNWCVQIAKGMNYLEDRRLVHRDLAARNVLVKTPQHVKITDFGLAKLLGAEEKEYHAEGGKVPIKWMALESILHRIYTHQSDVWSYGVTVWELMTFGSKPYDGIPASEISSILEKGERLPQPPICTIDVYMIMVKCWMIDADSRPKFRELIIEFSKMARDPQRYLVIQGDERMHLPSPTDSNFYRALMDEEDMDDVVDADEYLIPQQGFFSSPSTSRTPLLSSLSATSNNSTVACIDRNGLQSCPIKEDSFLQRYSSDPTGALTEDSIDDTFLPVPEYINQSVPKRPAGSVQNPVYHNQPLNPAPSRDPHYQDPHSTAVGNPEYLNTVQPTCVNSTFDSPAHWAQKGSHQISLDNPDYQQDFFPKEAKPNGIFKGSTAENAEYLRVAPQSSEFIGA
Chain of Receptor tyrosine-protein kinase erbB-2 (Homo sapiens) (P04626 whole entry, the tested form may be a part): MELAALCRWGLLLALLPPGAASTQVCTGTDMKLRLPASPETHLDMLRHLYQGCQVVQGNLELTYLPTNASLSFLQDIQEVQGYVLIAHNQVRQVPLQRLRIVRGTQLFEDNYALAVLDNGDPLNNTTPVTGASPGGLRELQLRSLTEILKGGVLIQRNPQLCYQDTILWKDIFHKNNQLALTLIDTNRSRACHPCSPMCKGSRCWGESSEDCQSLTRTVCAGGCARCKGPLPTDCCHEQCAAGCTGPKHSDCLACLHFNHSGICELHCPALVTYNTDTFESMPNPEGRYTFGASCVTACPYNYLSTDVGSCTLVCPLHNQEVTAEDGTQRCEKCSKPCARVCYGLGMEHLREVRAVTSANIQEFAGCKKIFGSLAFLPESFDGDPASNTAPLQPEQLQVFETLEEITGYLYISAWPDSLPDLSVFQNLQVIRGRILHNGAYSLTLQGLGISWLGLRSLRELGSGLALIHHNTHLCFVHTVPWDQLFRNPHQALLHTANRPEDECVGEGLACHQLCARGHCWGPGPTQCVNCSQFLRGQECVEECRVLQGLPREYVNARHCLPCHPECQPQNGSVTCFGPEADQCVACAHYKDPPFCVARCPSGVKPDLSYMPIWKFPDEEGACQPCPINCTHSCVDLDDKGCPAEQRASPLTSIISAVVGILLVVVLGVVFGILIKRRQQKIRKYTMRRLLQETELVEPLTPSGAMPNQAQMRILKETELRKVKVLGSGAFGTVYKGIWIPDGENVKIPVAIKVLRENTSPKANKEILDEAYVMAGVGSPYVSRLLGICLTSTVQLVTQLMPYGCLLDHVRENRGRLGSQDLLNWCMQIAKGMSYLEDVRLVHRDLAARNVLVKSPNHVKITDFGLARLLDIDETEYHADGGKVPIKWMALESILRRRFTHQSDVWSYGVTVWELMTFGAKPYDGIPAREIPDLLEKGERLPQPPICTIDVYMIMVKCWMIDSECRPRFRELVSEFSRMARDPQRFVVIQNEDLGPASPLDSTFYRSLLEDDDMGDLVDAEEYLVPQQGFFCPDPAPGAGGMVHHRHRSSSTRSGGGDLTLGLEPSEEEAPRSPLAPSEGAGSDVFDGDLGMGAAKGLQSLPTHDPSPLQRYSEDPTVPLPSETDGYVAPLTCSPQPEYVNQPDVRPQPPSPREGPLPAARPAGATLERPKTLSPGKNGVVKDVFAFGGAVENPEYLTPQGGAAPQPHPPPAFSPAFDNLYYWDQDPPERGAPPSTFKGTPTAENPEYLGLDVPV

Structure (SMILES)	IC50 (MCF7) [µM]	IC50 (A549 [1]) [µM]	inhibition [2] [%]	also measured
Cc1oc2ncnc(Nc3cccc(Cl)c3)c2c1C(=O)O	57.5	95.5	85	IC50 [3]: 0.901 µM
C#Cc1cccc(Nc2ncnc3oc(C)c(C(=O)OCC)c23)c1	> 1000	> 1000	26	
Cc1oc2ncnc(Nc3cccc(Cl)c3)c2c1C(=O)NC(C)C	190	> 1000	21	
Cc1oc2ncnc(Nc3cccc(Br)c3)c2c1C(=O)O	68	43	94	inhibition in vivo at 10 mg/kg (Ehrlich [4]): 70.8%; Activity (Mus musculus [5]): Non-Toxic; Activity (Ehrlich [6]): Active; fold change (FC) (Ehrlich [7]): >2; Activity (A549 [8]): 92.02%; Activity (Ehrlich [9]): Active; inhibition in vivo at 5 mg/kg (Ehrlich [10]): 61.4%; Activity (A549 [11]): 0.66%; Activity (A549 [12]): 3.05%; fold change (FC) (A549 [13]): 12; IC50 [3]: 0.752 µM; Activity (A549 [14]): 2.78%; fold change (FC) (A549 [15]): 2; Activity (Mus musculus [16]): Non-Toxic
CCCNC(=O)c1c(C)oc2ncnc(Nc3cccc(C)c3)c12	> 1000	> 1000	20	
CCOC(=O)c1c(C)oc2ncnc(Nc3ccc(OCc4cccc(Cl)c4)cc3)c12	54	513	5	inhibition [17]: 7%
Cc1oc2ncnc(Nc3ccccc3)c2c1C(=O)O	246	191	30	
Cc1oc2ncnc(Nc3cccc(Br)c3)c2c1C(=O)NCCO	22	17.4	73	
CCOC(=O)c1c(C)oc2ncnc(Nc3ccc(OCc4ccccc4)cc3)c12	> 1000	> 1000	10	inhibition [17]: 3%
CCOC(=O)c1c(C)oc2ncnc(Nc3cccc(C)c3)c12	> 1000	> 1000	52	
Cc1cccc(Nc2ncnc3oc(C)c(CO)c23)c1	17	24	72	
CCOC(=O)c1c(C)oc2ncnc(Nc3ccc(OCc4cccc(F)c4)c(Cl)c3)c12	257	0.5	18	inhibition in vivo at 10 mg/kg (Ehrlich [4]): 67.1%; Activity (Mus musculus [5]): Non-Toxic; Activity (Ehrlich [6]): Active; fold change (FC) (Ehrlich [7]): >2; Activity (A549 [8]): 81.19%; Activity (Ehrlich [9]): Active; fold change (FC) (A549 [18]): 79; inhibition in vivo at 5 mg/kg (Ehrlich [10]): 35.1%; Activity (Ehrlich [19]): Dose-dependent effect; Activity (A549 [11]): 1.67%; Activity (A549 [12]): 8.69%; fold change (FC) (A549 [13]): 32; Activity (A549 [14]): 6.59%; fold change (FC) (A549 [20]): 25; fold change (FC) (A549 [15]): 5; inhibition [17]: 6%; Activity (Mus musculus [16]): Non-Toxic
COc1cc2ncnc(Nc3ccc(F)c(Cl)c3)c2cc1OCCCN1CCOCC1 [GEFITINIB]				Activity (Ehrlich [6]): Active; Activity (Ehrlich [7]): Active; Activity (A549 [8]): 84.12%; Activity (Ehrlich [9]): Active; Activity (A549 [11]): 1.67%; Activity (A549 [12]): 6.72%; Activity (A549 [14]): 5.84%
Cc1oc2ncnc(Nc3cccc(Cl)c3)c2c1C(=O)NCCO	> 1000	> 1000	85	IC50 [3]: 2.7 µM
CCOC(=O)c1c(C)oc2ncnc(Nc3cccc(Cl)c3)c12	> 1000	> 1000	28	
CCOC(=O)c1c(C)oc2ncnc(Nc3ccc(OCc4ccc(C)cc4)cc3)c12	> 1000	> 1000	6	inhibition [17]: 20%
Cc1oc2ncnc(Nc3cccc(Br)c3)c2c1CO	11	102	70	
CCOC(=O)c1c(C)oc2ncnc(Nc3cccc(OC)c3)c12	> 1000	> 1000	6	
CCOC(=O)c1c(C)oc2ncnc(Nc3cccc(Br)c3)c12	> 1000	> 1000	26	
Cc1cccc(Nc2ncnc3oc(C)c(C(=O)O)c23)c1	57.5	100	58	
Cc1oc2ncnc(Nc3ccc(OCc4cccc(F)c4)c(Cl)c3)c2c1C(=O)O	46	21.4	100	inhibition in vivo at 10 mg/kg (Ehrlich [4]): 49%; Activity (Mus musculus [5]): Non-Toxic; Activity (Ehrlich [7]): 51%; Activity (A549 [8]): 88.77%; Activity (Ehrlich [9]): Active; inhibition in vivo at 5 mg/kg (Ehrlich [10]): 34.9%; Activity (A549 [11]): 0.8%; Activity (Ehrlich [21]): Active; Activity (A549 [12]): 4.84%; fold change (FC) (A549 [13]): 17; IC50 [3]: 0.951 µM; Activity (A549 [14]): 3.72%; fold change (FC) (A549 [15]): 3; inhibition [17]: 65%; Activity (Mus musculus [16]): Non-Toxic
CCOC(=O)c1c(C)oc2ncnc(Nc3ccccc3)c12	851	> 1000	22	
